This passage reports mutagenic call results from PubChem BioAssay AID1259407 (Chemical Carcinogenesis Research Information System (CCRIS), 2018).

Active and inactive are the calls of the source. How the calls were made is not given here.

The series concerns CCRIS mutagenicity, Ames/micronucleus/aberration tests. The experiment in a line: CCRIS mutagenicity studies.
[1] abbreviates: Test System: AMES SALMONELLA TYPHIMURIUM, Strain/Indicator: TA98, Metabolic Activation: NONE, Method: STANDARD PLATE.
The mark [2] stands for this setting: Test System: AMES SALMONELLA TYPHIMURIUM, Strain/Indicator: TA98, Metabolic Activation: RAT, LIVER, S-9, AROCLOR 1254, Method: STANDARD PLATE.
[3] abbreviates: Test System: AMES SALMONELLA TYPHIMURIUM, Strain/Indicator: TA100, Metabolic Activation: NONE, Method: STANDARD PLATE.
Setting [4] is: Test System: AMES SALMONELLA TYPHIMURIUM, Strain/Indicator: TA100, Metabolic Activation: RAT, LIVER, S-9, AROCLOR 1254, Method: STANDARD PLATE.
Where [5] appears, read: Test System: AMES SALMONELLA TYPHIMURIUM, Strain/Indicator: TA98, Metabolic Activation: NONE, Method: PREINCUBATION
The mark [6] stands for this setting: Test System: AMES SALMONELLA TYPHIMURIUM, Strain/Indicator: TA1535, Metabolic Activation: NONE, Method: STANDARD PLATE.
Setting [7] is: Test System: AMES SALMONELLA TYPHIMURIUM, Strain/Indicator: TA1535, Metabolic Activation: RAT, LIVER, S-9, AROCLOR 1254, Method: STANDARD PLATE.
Setting [8] is: Test System: AMES SALMONELLA TYPHIMURIUM, Strain/Indicator: TA1537, Metabolic Activation: NONE, Method: STANDARD PLATE.
Where [9] appears, read: Test System: AMES SALMONELLA TYPHIMURIUM, Strain/Indicator: TA1537, Metabolic Activation: RAT, LIVER, S-9, AROCLOR 1254, Method: STANDARD PLATE.
Where [10] appears, read: Test System: AMES SALMONELLA TYPHIMURIUM, Strain/Indicator: TA100, Metabolic Activation: NONE, Method: PREINCUBATION

For the compound `Cl/C=C(\Cl)c1c(Cl)c(Cl)c(Cl)c(Cl)c1Cl`, the mutagenic call reads like this: under setting [1], “inactive; negative”; under setting [2], “inactive; negative”; under setting [3], “inactive; negative”; under setting [4], “inactive; negative”.

Take `N#CCc1cn(N=O)c2ccccc12`: the mutagenic call was “active; positive” (Test System: AMES SALMONELLA TYPHIMURIUM, Strain/Indicator: TA100, Metabolic Activation: NONE) and “active; positive” (Test System: AMES SALMONELLA TYPHIMURIUM, Strain/Indicator: TA100, Metabolic Activation: S-9).

Regarding `O=[N+]([O-])c1ccc2c3c(c4cccc5ccc1c2c54)CCCC3`, the mutagenic call reads like this: under setting [1], “active; positive”; under setting [2], “active; positive”.

As for `O=[N+]([O-])c1c(O)ccc2ccccc12`, under setting [5], the mutagenic call is “active; positive”.

As to `CN(C)CCCN1c2ccccc2CCc2ccccc21`, the mutagenic call under setting [1] is “inactive; negative”; the mutagenic call under setting [2] was “inactive; negative”; the mutagenic call under setting [3] was “inactive; negative”; the mutagenic call under setting [4] is “inactive; negative”; the mutagenic call under setting [6] was “inactive; negative”; the mutagenic call under setting [7] is “inactive; negative”. In addition, the mutagenic call reads like this: under setting [8], “inactive; negative”; under setting [9], “inactive; negative”.

Take `NC(=O)c1cnccn1`: the mutagenic call by setting is: (Test System: AMES SALMONELLA TYPHIMURIUM, Strain/Indicator: TA98, Metabolic Activation: HAMSTER, LIVER, S-9, AROCLOR 1254 (10%), Method: PREINCUBATION) “inactive; negative”; under setting [5], “inactive; negative”; (Test System: AMES SALMONELLA TYPHIMURIUM, Strain/Indicator: TA98, Metabolic Activation: RAT, LIVER, S-9, AROCLOR 1254 (10%), Method: PREINCUBATION) “inactive; negative”; (Test System: AMES SALMONELLA TYPHIMURIUM, Strain/Indicator: TA100, Metabolic Activation: HAMSTER, LIVER, S-9, AROCLOR 1254 (10%), Method: PREINCUBATION) “inactive; negative”; under setting [10], “inactive; negative”; (Test System: AMES SALMONELLA TYPHIMURIUM, Strain/Indicator: TA100, Metabolic Activation: RAT, LIVER, S-9, AROCLOR 1254 (10%), Method: PREINCUBATION) “inactive; negative”. Moreover, the mutagenic call by setting is: (Test System: AMES SALMONELLA TYPHIMURIUM, Strain/Indicator: TA1535, Metabolic Activation: HAMSTER, LIVER, S-9, AROCLOR 1254 (10%), Method: PREINCUBATION) “inactive; negative”; (Test System: AMES SALMONELLA TYPHIMURIUM, Strain/Indicator: TA1535, Metabolic Activation: NONE, Method: PREINCUBATION) “inactive; negative”; (Test System: AMES SALMONELLA TYPHIMURIUM, Strain/Indicator: TA1535, Metabolic Activation: RAT, LIVER, S-9, AROCLOR 1254 (10%), Method: PREINCUBATION) “inactive; negative”; (Test System: AMES SALMONELLA TYPHIMURIUM, Strain/Indicator: TA1537, Metabolic Activation: HAMSTER, LIVER, S-9, AROCLOR 1254 (10%), Method: PREINCUBATION) “inactive; negative”; (Test System: AMES SALMONELLA TYPHIMURIUM, Strain/Indicator: TA1537, Metabolic Activation: NONE, Method: PREINCUBATION) “inactive; negative”; (Test System: AMES SALMONELLA TYPHIMURIUM, Strain/Indicator: TA1537, Metabolic Activation: RAT, LIVER, S-9, AROCLOR 1254 (10%), Method: PREINCUBATION) “inactive; negative”.

With `COc1ccc2c(c1)[C@H]1CCCC[C@@H]1[C@H]1O[C@@H]21`, the mutagenic call was “inactive; negative” under setting [1] and “inactive; negative” under setting [3].

Take `O=[N+]([O-])c1ccc2c3c(cccc13)-c1cc3ccccc3cc1-2`: the mutagenic call under setting [1] is “active; positive”.

Turning to `CC(=O)Nc1ccc(Oc2ccc(N(OC(C)=O)C(C)=O)cc2)cc1`, the mutagenic call runs as follows: (Test System: AMES SALMONELLA TYPHIMURIUM, Strain/Indicator: TA98(1,8-DNP6), Metabolic Activation: NONE, Method: PREINCUBATION) “active; positive”; (Test System: AMES SALMONELLA TYPHIMURIUM, Strain/Indicator: TA98(1,8-DNP6), Metabolic Activation: RAT, LIVER, S-9, AROCLOR 1254, Method: PREINCUBATION) “active; positive”; (Test System: AMES SALMONELLA TYPHIMURIUM, Strain/Indicator: TA98(NR), Metabolic Activation: NONE, Method: PREINCUBATION) “active; positive”; (Test System: AMES SALMONELLA TYPHIMURIUM, Strain/Indicator: TA98(NR), Metabolic Activation: RAT, LIVER, S-9, AROCLOR 1254, Method: PREINCUBATION) “active; positive”; under setting [5], “active; positive”; (Test System: AMES SALMONELLA TYPHIMURIUM, Strain/Indicator: TA98, Metabolic Activation: RAT, LIVER, S-9, AROCLOR 1254, Method: PREINCUBATION) “active; positive”. The mutagenic call (Test System: AMES SALMONELLA TYPHIMURIUM, Strain/Indicator: TA100(NR), Metabolic Activation: NONE, Method: PREINCUBATION) was “active; positive”; the mutagenic call (Test System: AMES SALMONELLA TYPHIMURIUM, Strain/Indicator: TA100(NR), Metabolic Activation: RAT, LIVER, S-9, AROCLOR 1254, Method: PREINCUBATION) is “active; positive”; the mutagenic call under setting [10] was “active; positive”; the mutagenic call (Test System: AMES SALMONELLA TYPHIMURIUM, Strain/Indicator: TA100, Metabolic Activation: RAT, LIVER, S-9, AROCLOR 1254, Method: PREINCUBATION) was “active; positive”.

For `O=c1[nH][nH]c2ccccc12`, the mutagenic call by setting is: (Test System: AMES SALMONELLA TYPHIMURIUM, Strain/Indicator: TA98, Metabolic Activation: HAMSTER, LIVER, S-9, AROCLOR 1254, Method: STANDARD PLATE) “inactive; negative”; under setting [1], “inactive; negative”; under setting [2], “inactive; negative”; (Test System: AMES SALMONELLA TYPHIMURIUM, Strain/Indicator: TA100, Metabolic Activation: HAMSTER, LIVER, S-9, AROCLOR 1254, Method: STANDARD PLATE) “inactive; negative”; under setting [3], “inactive; negative”; under setting [4], “inactive; negative”. In addition, the mutagenic call by setting is: (Test System: AMES SALMONELLA TYPHIMURIUM, Strain/Indicator: TA1535, Metabolic Activation: HAMSTER, LIVER, S-9, AROCLOR 1254, Method: STANDARD PLATE) “inactive; negative”; under setting [6], “inactive; negative”; under setting [7], “inactive; negative”; (Test System: AMES SALMONELLA TYPHIMURIUM, Strain/Indicator: TA1537, Metabolic Activation: HAMSTER, LIVER, S-9, AROCLOR 1254, Method: STANDARD PLATE) “inactive; negative”; under setting [8], “inactive; negative”; under setting [9], “inactive; negative”. Besides, the mutagenic call (Test System: AMES SALMONELLA TYPHIMURIUM, Strain/Indicator: TA1538, Metabolic Activation: HAMSTER, LIVER, S-9, AROCLOR 1254, Method: STANDARD PLATE) was “inactive; negative”; the mutagenic call (Test System: AMES SALMONELLA TYPHIMURIUM, Strain/Indicator: TA1538, Metabolic Activation: NONE, Method: STANDARD PLATE) is “inactive; negative”; the mutagenic call (Test System: AMES SALMONELLA TYPHIMURIUM, Strain/Indicator: TA1538, Metabolic Activation: RAT, LIVER, S-9, AROCLOR 1254, Method: STANDARD PLATE) was “inactive; negative”; the mutagenic call (Test System: MOUSE LYMPHOMA, Strain/Indicator: L5178Y (TK+/TK-), Metabolic Activation: NONE, Method: SUSPENSION/PLATE) was “active; positive. reevaluation of results: positive”; the mutagenic call (Test System: MOUSE LYMPHOMA, Strain/Indicator: L5178Y (TK+/TK-), Metabolic Activation: RAT, LIVER, S-9, AROCLOR 1254, Method: SUSPENSION/PLATE) was “inactive; negative. reevaluation of results: negative”.
